Source: ChEMBL document CHEMBL3286248, “Easily accessible polycyclic amines that inhibit the wild-type and amantadine-resistant mutants of the M2 channel of influenza A virus” (J Med Chem, 2014)
Counter-ions that a name gives are not always drawn. The source made the active and inactive calls. The rule behind the calls is not given here.

Experiments:
[1] = target: Matrix protein 2 (Influenza A virus (A/Udorn/307/1972(H3N2))) (UniProt P0DOF8); assay type: cell membranes; conditions: Influenza A virus (A/udorn/1972(H3N2))
Sequence of Matrix protein 2 (Influenza A virus (A/Udorn/307/1972(H3N2))) (P0DOF8 whole entry): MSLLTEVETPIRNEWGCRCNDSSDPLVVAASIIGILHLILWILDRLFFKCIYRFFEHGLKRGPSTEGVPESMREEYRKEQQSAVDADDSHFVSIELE

MDCK = assay type: cell-based, Canis lupus familiaris; conditions: dog, 72 h
[2] = Cytotoxicity against MDCK cells assessed as alteration in cell morphology after 72 hrs; assay type: cell-based, Canis lupus familiaris; conditions: dog
Influenza B virus = experiment: Antiviral activity against Influenza B virus (B/HK/5/72) infected in MDCK cells; assay type: functional, cell-based; conditions: B/Hong Kong/05/1972
[3] = target: Matrix protein 2 (Influenza A virus (A/Udorn/307/1972(H3N2)), UniProt P0DOF8); assay type: cell membranes, Influenza A virus (A/udorn/1972(H3N2))
Sequence of Matrix protein 2 (Influenza A virus (A/Udorn/307/1972(H3N2)), UniProt P0DOF8) (P0DOF8 whole entry): as above

Row | SMILES | inhibition [1] | CC50 (MDCK) | MCC at 72 h [2] | Activity (Influenza B virus) | IC50 [3]
1 | C1=CC2C3CC3C1C1CN(C3CCNCC3)CC21 (stereo not given) | inactive | 46 µM | 100 µM | inactive | –
2 | CC12CC34CNCC35CC1(C)C(C)(C5)C2(C)C4 (stereo not given) | – | 49 µM | 100 µM | inactive | –
3 | CC12CC34CN(C(=N)N)CC35CC1(C)C(C)(C5)C2(C)C4 (stereo not given) | – | 15 µM | ≥ 4 µM | inactive | –
4 | C1CC(N2CC3C4CCC(C5CC45)C3C2)CCN1 (stereo not given) | inactive | 9 µM | 20 µM | inactive | –
5 | N=C(N)N1CC2C3C=CC(C4CC34)C2C1 (stereo not given) | – | 39 µM | 100 µM | inactive | 1.5 µM
6 | C1=CC2C1C1C=CC2C2CNCC12 (stereo not given) | – | 4.9 µM | 15 µM | inactive | 5.54 µM
7 | C1CC2C1C1CCC2C2CNCC12 (stereo not given) | – | 1.9 µM | 4 µM | inactive | 1.24 µM
8 | C1=CC2C3CNCC3C1C1CC21 (stereo not given) | – | 54 µM | 100 µM | inactive | 2.92 µM
9 | N=C(N)N1CC2C3C=CC(C4C=CC43)C2C1 (stereo not given) | – | 9.4 µM | 20 µM | inactive | 4.93 µM
10 | NC12CC3CC(CC(C3)C1)C2 [AMANTADINE] | – | > 500 µM | ≥ 500 µM | inactive | –
11 | N=C(N)N1CC2C3CCC(C4CCC43)C2C1 (stereo not given) | – | 1.9 µM | 4 µM | inactive | –
12 | C1CC2C3CNCC3C1C1CC21 (stereo not given) | – | 49 µM | 100 µM | inactive | 3.38 µM
13 | CC(N)C12CC3CC(CC(C3)C1)C2 (stereo not given) [RIMANTADINE HYDROCHLORIDE] | – | 230 µM | – | inactive | –
14 | N=C(N)N1CC2C3CCC(C4CC34)C2C1 (stereo not given) | – | 41 µM | 100 µM | inactive | 1.64 µM
